Test results from BigSolDB 2.1.

O=C(O)CCCCCCCC(=O)O
Settings | solubility (mole fraction)
in acetic acid, 289.05 K | 0.022
in acetic acid, 293.95 K | 0.0279
in acetic acid, 298.85 K | 0.0355
in acetic acid, 303.45 K | 0.0452
in acetic acid, 308.35 K | 0.0582
in acetic acid, 313.35 K | 0.0746
in acetic acid, 318.85 K | 0.0964
in acetic acid, 325.35 K | 0.132
in acetic acid, 330.95 K | 0.169
in acetic acid, 337.35 K | 0.223
in acetic acid, 341.75 K | 0.265
in acetone, 276.65 K | 0.00895
in acetone, 279.45 K | 0.0103
in acetone, 283.15 K | 0.0129
in acetone, 286.95 K | 0.0158
in acetone, 294.15 K | 0.0228
in acetone, 297.55 K | 0.0275
in acetone, 303.05 K | 0.0365
in acetone, 306.55 K | 0.0438
in acetone, 312.05 K | 0.0587
in acetone, 316.15 K | 0.0732
in acetone, 320.95 K | 0.1
in acetone, 325.35 K | 0.12
in ethanol, 276.75 K | 0.0212
in ethanol, 280.05 K | 0.0253
in ethanol, 283.25 K | 0.0292
in ethanol, 288.15 K | 0.0362
in ethanol, 293.05 K | 0.0449
in ethanol, 297.55 K | 0.0546
in ethanol, 304.05 K | 0.069
in ethanol, 307.35 K | 0.083
in ethanol, 312.05 K | 0.0969
in ethanol, 317.05 K | 0.117
in ethanol, 322.05 K | 0.143
in ethanol, 326.85 K | 0.166
in ethanol, 332.05 K | 0.202
in ethanol, 336.55 K | 0.234
in ethylene glycol, 278.65 K | 0.0083
in ethylene glycol, 283.35 K | 0.01
in ethylene glycol, 288.05 K | 0.0105
in ethylene glycol, 292.85 K | 0.0144
in ethylene glycol, 297.35 K | 0.0241
in ethylene glycol, 303.35 K | 0.03
in ethylene glycol, 307.35 K | 0.0395
in ethylene glycol, 312.25 K | 0.0496
in ethylene glycol, 317.05 K | 0.0622
in ethylene glycol, 321.55 K | 0.0791
in ethylene glycol, 326.45 K | 0.103
in ethylene glycol, 331.35 K | 0.131
in ethylene glycol, 336.15 K | 0.167
